According to patent US7608726B2, “Substituted indolepyridinium as anti-infective compounds” (Tibotec Pharmaceuticals Ltd., priority 2002, dated 2009):

What was measured:
wild type HIV-LAI strain = assay: Antiviral cellular assay (MT4 cells, MTT), wild type HIV-1 strain LAI; format: cell-based; settings: Human immunodeficiency virus 1, MT4; read-out: EC50, inhibition of wild-type HIV-LAI strain
Protocol: The compounds of the present invention were examined for anti-viral activity in a cellular assay. […] The cellular assay was performed according to the following procedure.
(§1) HIV- or mock-infected MT4 cells were incubated for five days in the presence of various concentrations of the inhibitor. At the end of the incubation period, the replicating virus in the control cultures has killed all HIV-infected cells in the absence of any inhibitor. Cell viability was determined by measuring the concentration of MTT, a yellow, water soluble tetrazolium dye that is converted to a purple, water insoluble formazan in the mitochondria of living cells only. Upon solubilization of the resulting formazan crystals with isopropanol, the absorbance of the solution was monitored at 540 nm. The values correlate directly to the number of living cells remaining in the culture at the completion of the five day incubation. The inhibitory activity of the compound was monitored on the virus-infected cells and was expressed as EC50 and EC90. These values represent the amount of the compound required to protect 50% and 90%, respectively, of the cells from the cytopathogenic effect of the virus. The toxicity of the compound was measured on the mock-infected cells and was expressed as CC50, which represents the concentration of compound required to inhibit the growth of the cells by 50%. The selectivity index (SI) (ratio CC50/EC50) is an indication of the selectivity of the anti-HIV activity of the inhibitor. Wherever results are reported as e.g. pEC50 or pCC50 values, the result is expressed as the negative logarithm of the result expressed as EC50 or CC50 respectively.
As a measure of the broad spectrum activity of the present compounds, the EC50 was determined. […] The fold resistance rounded to the nearest integer is mentioned between brackets.
(§2) Row WT: pEC50 against wild type HIV-LAI strain. The toxicity (Tox) is expressed as the pCC50 value as determined with mock transfected cells. ND means not determined.

[1] = Microsomal metabolization, human liver microsomes; format: in vitro ADME; settings: liver microsomal fractions
Protocol: Aliquots of human liver microsomal fractions (prepared by centrifugation at 12000 g^−1) were transferred into 10 ml glass tubes that are immersed in ice. Subsequently, test compound was added to yield a final concentration of 10 μM test compound. After adding 500 μl of a co-factor solution (cofactor solution: 1 mg/ml glucose-6-phosphate, 1 mg/ml MgCl2.6H2O, 0.5 units/ml glucose-6-phosphate dehydrogenase in 0.5 M phohsphate buffer. pH 7.4), homogenisation buffer (homogenisation buffer: 1,15% KCl in 0.05 M phosphate buffer, pH 7.4) was added to give a final volume of 1 ml. The incubations, 30 or 120 minutes at 37° C., were initiated by adding 10 μl of a solution of nicontinamide adenine dinucleotide phosphate (1.25 mg/ml) in homogenisation buffer. After a preincubation during 5 minutes at 37° C., the tubes were continuously shaken at 100 oscillations/minute in a water bath. The reactions were terminated by addition of an equal volume of DMSO. Blank incubations containing boiled microsomal fractions were incubated under the same conditions as the drug incubations. The degree of metabolism was determined by direct measurement of the residual parent compound in the reaction mixture using LC-MS. In parallel, the residual anti-HIV activity in the reaction mixture was detected using a colorimetric anti-HIV assay as described in Pauwels et al. J. Virol. Methods 1988 (20) 309-321. The residual activity is defined as the percent difference in EC50 between the drug incubations and the blank incubations.
The amount of compound was determined using LC-MS at the time points indicated between brackets. The results are indicated as a % vis-à-vis the amount determined at the start of the experiment (time=0; normalized to 100%).

HIV mutant A (Y181C) = assay: Antiviral cellular assay, mutant HIV strain A; format: cell-based; settings: EC50 mutant/EC50 wild type, rounded to nearest integer
Protocol: as §1, with “The toxicity of the compound was measured on the mock-infected cells and was expressed as CC50, which represents the concentration of compound required to inhibit the growth of the cells by 50%. The selectivity index (SI) (ratio CC50/EC50) is an indication of the selectivity of the anti-HIV activity of the inhibitor.” left out, “respectively. […]” for “respectively.”
as §2

HIV mutant B (K103N) = assay: Antiviral cellular assay, mutant HIV strain B; format: cell-based; settings: EC50 mutant/EC50 wild type, rounded to nearest integer
Protocol: as §1, with “The toxicity of the compound was measured on the mock-infected cells and was expressed as CC50, which represents the concentration of compound required to inhibit the growth of the cells by 50%. The selectivity index (SI) (ratio CC50/EC50) is an indication of the selectivity of the anti-HIV activity of the inhibitor.” left out, “respectively. […]” for “respectively.”
as §2

[2] = tested on: HIV mutant C (L100I; K103N); assay: Antiviral cellular assay, mutant HIV strain C; format: cell-based; settings: EC50 mutant/EC50 wild type, rounded to nearest integer
Protocol: as §1, with “The toxicity of the compound was measured on the mock-infected cells and was expressed as CC50, which represents the concentration of compound required to inhibit the growth of the cells by 50%. The selectivity index (SI) (ratio CC50/EC50) is an indication of the selectivity of the anti-HIV activity of the inhibitor.” left out, “respectively. […]” for “respectively.”
as §2

[3] = tested on: HIV mutant D (L100I; K103N); assay: Antiviral cellular assay, mutant HIV strain D; format: cell-based; settings: EC50 mutant/EC50 wild type, rounded to nearest integer
Protocol: as §1, with “The toxicity of the compound was measured on the mock-infected cells and was expressed as CC50, which represents the concentration of compound required to inhibit the growth of the cells by 50%. The selectivity index (SI) (ratio CC50/EC50) is an indication of the selectivity of the anti-HIV activity of the inhibitor.” left out, “respectively. […]” for “respectively.”
as §2

HIV mutant E (F227C) = assay: Antiviral cellular assay, mutant HIV strain E; format: cell-based; settings: EC50 mutant/EC50 wild type, rounded to nearest integer
Protocol: as §1, with “The toxicity of the compound was measured on the mock-infected cells and was expressed as CC50, which represents the concentration of compound required to inhibit the growth of the cells by 50%. The selectivity index (SI) (ratio CC50/EC50) is an indication of the selectivity of the anti-HIV activity of the inhibitor.” left out, “respectively. […]” for “respectively.”
as §2

HIV mutant F (Y188L) = assay: Antiviral cellular assay, mutant HIV strain F; format: cell-based; settings: EC50 mutant/EC50 wild type, rounded to nearest integer
Protocol: as §1, with “The toxicity of the compound was measured on the mock-infected cells and was expressed as CC50, which represents the concentration of compound required to inhibit the growth of the cells by 50%. The selectivity index (SI) (ratio CC50/EC50) is an indication of the selectivity of the anti-HIV activity of the inhibitor.” left out, “respectively. […]” for “respectively.”
as §2

[4] = tested on: HIV mutant G (V106A, F227L); assay: Antiviral cellular assay, mutant HIV strain G; format: cell-based; settings: EC50 mutant/EC50 wild type, rounded to nearest integer
Protocol: as §1, with “The toxicity of the compound was measured on the mock-infected cells and was expressed as CC50, which represents the concentration of compound required to inhibit the growth of the cells by 50%. The selectivity index (SI) (ratio CC50/EC50) is an indication of the selectivity of the anti-HIV activity of the inhibitor.” left out, “respectively. […]” for “respectively.”
as §2

[5] = tested on: HIV mutant H (K103N, Y181C); assay: Antiviral cellular assay, mutant HIV strain H; format: cell-based; settings: EC50 mutant/EC50 wild type, rounded to nearest integer
Protocol: as §1, with “The toxicity of the compound was measured on the mock-infected cells and was expressed as CC50, which represents the concentration of compound required to inhibit the growth of the cells by 50%. The selectivity index (SI) (ratio CC50/EC50) is an indication of the selectivity of the anti-HIV activity of the inhibitor.” left out, “respectively. […]” for “respectively.”
as §2

[6] = tested on: HIV mutant I (K101E, K103N); assay: Antiviral cellular assay, mutant HIV strain I; format: cell-based; settings: EC50 mutant/EC50 wild type, rounded to nearest integer
Protocol: as §1, with “The toxicity of the compound was measured on the mock-infected cells and was expressed as CC50, which represents the concentration of compound required to inhibit the growth of the cells by 50%. The selectivity index (SI) (ratio CC50/EC50) is an indication of the selectivity of the anti-HIV activity of the inhibitor.” left out, “respectively. […]” for “respectively.”
as §2

[7] = tested on: HIV mutant J (131L, L100I, K103N, E138G, Y181C, L214F); assay: Antiviral cellular assay, mutant HIV strain J; format: cell-based; settings: EC50 mutant/EC50 wild type, rounded to nearest integer
Protocol: as §1, with “The toxicity of the compound was measured on the mock-infected cells and was expressed as CC50, which represents the concentration of compound required to inhibit the growth of the cells by 50%. The selectivity index (SI) (ratio CC50/EC50) is an indication of the selectivity of the anti-HIV activity of the inhibitor.” left out, “respectively. […]” for “respectively.”
as §2

[8] = tested on: HIV mutant K (multiple RT mutations, Table 1); assay: Antiviral cellular assay, mutant HIV strain K; format: cell-based; settings: EC50 mutant/EC50 wild type, rounded to nearest integer
Protocol: as §1, with “The toxicity of the compound was measured on the mock-infected cells and was expressed as CC50, which represents the concentration of compound required to inhibit the growth of the cells by 50%. The selectivity index (SI) (ratio CC50/EC50) is an indication of the selectivity of the anti-HIV activity of the inhibitor.” left out, “respectively. […]” for “respectively.”
as §2

HIV-2 = assay: Antiviral cellular assay, HIV-2; format: cell-based; settings: Human immunodeficiency virus 2; read-out: pEC50 towards HIV-2 (converted)
Protocol: as §1, with “The toxicity of the compound was measured on the mock-infected cells and was expressed as CC50, which represents the concentration of compound required to inhibit the growth of the cells by 50%. The selectivity index (SI) (ratio CC50/EC50) is an indication of the selectivity of the anti-HIV activity of the inhibitor.” left out
as §2

[9] = tested on: SIV (simian immunodeficiency virus); assay: Antiviral cellular assay, SIV; format: cell-based; settings: read-out: pEC50 towards SIV (converted)

N#Cc1cc2c(c3ccccc3n2CCN2CCCC2)n(-c2ccc([N+](=O)[O-])cc2)c1=O [Compound 13, 1-(4-Nitro-phenyl)-2-oxo-5-(2-pyrrolidin-1-yl-ethyl)-2,5-dihydro-1H-pyrido[3,2-b]-indole-3-carbonitrile]
EC50 (wild type HIV-LAI strain): < 1 µM | hepatic first pass metabolization (microsomal) [1]: little or no hepatic first pass metabolization

N#Cc1cc2[nH]c3ccccc3c2n(-c2ccc([N+](=O)[O-])cc2)c1=O [Compound 1, 1-(4-nitrophenyl)-2-oxo-2,5-dihydro-1H-pyrido[3,2-b]indole-3-carbonitrile]
fold resistance mutant A (between brackets) (HIV mutant A (Y181C)): 8 | fold resistance mutant B (between brackets) (HIV mutant B (K103N)): 4 | fold resistance mutant C (between brackets) [2]: 8 | fold resistance mutant D (between brackets) [3]: 3 | fold resistance mutant E (between brackets) (HIV mutant E (F227C)): 6 | fold resistance mutant F (between brackets) (HIV mutant F (Y188L)): 4 | fold resistance mutant G (between brackets) [4]: 2 | fold resistance mutant H (between brackets) [5]: 5 | fold resistance mutant I (between brackets) [6]: 3 | fold resistance mutant J (between brackets) [7]: 5 | fold resistance mutant K (between brackets) [8]: 1 | EC50 (HIV-2): 6.31 µM | EC50 [9]: 7.94 µM
